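Test compounds were applied to cells in 96-well plates for 48 hours at 5 doses. At the TGI there is no net growth.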
Assays:
Assay in all cases: DTP human tumour cell line panel, 48 h
786-0 renal = tested on: 786-0 renal
A498 renal = tested on: A498 renal
A549 NSCLC = tested on: A549 NSCLC
ACHN renal = tested on: ACHN renal
BT-549 breast = tested on: BT-549 breast
CAKI-1 renal = tested on: CAKI-1 renal
CCRF-CEM leukemia = tested on: CCRF-CEM leukemia
COLO 205 colon = tested on: COLO 205 colon
DU-145 prostate = tested on: DU-145 prostate
EKVX NSCLC = tested on: EKVX NSCLC
HCC-2998 colon = tested on: HCC-2998 colon
HCT-116 colon = tested on: HCT-116 colon
HCT-15 colon = tested on: HCT-15 colon
HL-60(TB) leukemia = tested on: HL-60(TB) leukemia
HOP-62 NSCLC = tested on: HOP-62 NSCLC
HOP-92 NSCLC = tested on: HOP-92 NSCLC
HS 578T breast = tested on: HS 578T breast
HT29 colon = tested on: HT29 colon
K-562 leukemia = tested on: K-562 leukemia
KM12 colon = tested on: KM12 colon
LOX IMVI melanoma = tested on: LOX IMVI melanoma
M14 melanoma = tested on: M14 melanoma
MALME-3M melanoma = tested on: MALME-3M melanoma
MCF7 breast = tested on: MCF7 breast
MDA-MB-231 breast = tested on: MDA-MB-231 breast
MDA-MB-435 = tested on: MDA-MB-435
MDA-N = tested on: MDA-N
MOLT-4 leukemia = tested on: MOLT-4 leukemia
NCI-H226 lung = tested on: NCI-H226 lung
NCI-H23 lung = tested on: NCI-H23 lung
NCI-H460 lung = tested on: NCI-H460 lung
NCI/ADR-RES ovarian = tested on: NCI/ADR-RES ovarian
OVCAR-3 ovarian = tested on: OVCAR-3 ovarian
OVCAR-4 ovarian = tested on: OVCAR-4 ovarian
OVCAR-5 ovarian = tested on: OVCAR-5 ovarian
OVCAR-8 ovarian = tested on: OVCAR-8 ovarian
PC-3 prostate = tested on: PC-3 prostate
RPMI-8226 leukemia = tested on: RPMI-8226 leukemia
RXF 393 renal = tested on: RXF 393 renal
SF-268 CNS = tested on: SF-268 CNS
SF-295 CNS = tested on: SF-295 CNS
SF-539 CNS = tested on: SF-539 CNS
SK-MEL-2 melanoma = tested on: SK-MEL-2 melanoma
SK-MEL-28 melanoma = tested on: SK-MEL-28 melanoma
SK-MEL-5 melanoma = tested on: SK-MEL-5 melanoma
SK-OV-3 ovarian = tested on: SK-OV-3 ovarian
SN12C renal = tested on: SN12C renal
SNB-19 CNS = tested on: SNB-19 CNS
SNB-75 CNS = tested on: SNB-75 CNS
SW-620 colon = tested on: SW-620 colon
T-47D breast = tested on: T-47D breast
TK-10 renal = tested on: TK-10 renal
U251 CNS = tested on: U251 CNS
UACC-257 melanoma = tested on: UACC-257 melanoma
UACC-62 melanoma = tested on: UACC-62 melanoma
UO-31 renal = tested on: UO-31 renal
IGROV1 ovarian = tested on: IGROV1 ovarian
NCI-H522 lung = tested on: NCI-H522 lung

Measured: TGI

Cc1nc2cc(C(F)(F)F)ccc2[nH]c1=O
not listed: IGROV1 ovarian | NCI-H522 lung
> 100 µM: all other assays above

O=C(O)/C=C/C(=O)Nc1ncn[nH]1
not listed: CCRF-CEM leukemia | HL-60(TB) leukemia | K-562 leukemia | MALME-3M melanoma
> 100 µM: all other assays above

Reference: PubChem BioAssay (NCI)
